Legend:
hERG channel = hERG channel (Homo sapiens (Human), UniProt Q12809); test: [3H]Dofetilide binding assay, HEK-293 cell membrane preparation; conditions: [3H]dofetilide, HEK-293 cell membranes; read-out: hERG Binding: Mean Ki ± Standard Deviation
Procedure: [^3H]Dofetilide binding assays were conducted using commercially available HEK-293 cell membranes which stably express the hERG channel. Membranes were suspended in assay buffer (50 mM Tris, 10 mM KCl, 1 mM MgCl2, pH 7.4) prior to the experiment. […] Aliquots of the HEK-293 cell membrane suspension which contained 5 μg membrane protein were added to tubes containing assay buffer, 5 nM [^3H]dofetilide and a range of concentrations of analog (10 nM-100 μM). Nonspecific binding was determined in the presence of amitriptyline (1 mM). Samples were incubated for 1 hr. at 24° C., followed by rapid filtration. […] The affinity for the [^3H]dofetilide binding site on the hERG channel expressed in the HEK-293 cellular membrane was determined from the analog concentration response curves.

[1] = Microsomal stability assay, rat liver microsomes; conditions: for CLint scaled at 0.08 µM / half-life at 0.08 µM: female, Sprague-Dawley, rat, liver microsomes; for CLint scaled at 0.08 µM: pH 7.4, Microsomal stability assays: Clearance; for half-life at 0.08 µM: pH 7.4, Microsomal stability assays: Half-life
Procedure: (§1) Each plate holds triplicate samples of two controls (0.4 mM) and up to 14 compounds (0.08 mM) in rat and human liver microsomes. Aliquots of each well of the plate (175 μl of each well) were transferred from the master plate into 5 assay plates. For 0-hr time point, pre-cooled (4° C.) internal standard (437.5 μL, 2 μM caffeine in methanol) was added to the first plate before the reaction starts. NADPH regenerating system solution A (6.05 ml, Fisher Scientific, #NC9255727) was combined with NADPH regenerating system solution B (1.21 ml, Fisher Scientific, #NC9016235) in potassium phosphate buffer (15.8 ml, 0.1 M, pH 7.4, 37° C.). The resulting NADPH solution (43.8 μl) was added to each well of all the 96-well assay plates and mixed with pipette briefly making the final protein and compound concentrations respectively: 0.5 mg/ml, 0.08 μM (0.4 μM for controls). Plates were sealed, and all plates except the 0-hr plate were incubated at 37° C., shaken at a speed of 60 rpm. A single assay plate was tested at each time point: 0.5 hr, 1 hr, 2 hr, and 4 hr. At each time point, 437.5 μL of pre-cooled internal standard was added each well of the plate to quench the reaction. […] 120 μl supernatant was transferred to a 96-well plate, centrifuged again and analyzed by UPLC-MS (Waters Inc., Milford, MA). The compounds and internal standard were detected by selected ion recording (SIR).
(§2) The amount of material was measured as a ratio of peak area to the internal standard and graphed. Using the slope from the initial linear portion of this curve, the degradation rate constant is calculated using equation [1].

VMAT2 = VMAT2 (Rattus norvegicus (Rat), UniProt Q01827); test: [3H]Dopamine ([3H]DA) uptake assay, vesicular preparation; type: biochemical; conditions: [3H]DA uptake, rat; read-out: VMAT2 (rat) Inhibition: Mean Ki ± Standard Deviation
[2] = Microsomal stability assay, human liver microsomes; conditions: for CLint scaled at 0.08 µM / half-life at 0.08 µM: both, human, pooled liver microsomes; for CLint scaled at 0.08 µM: pH 7.4, Microsomal stability assays: Clearance; for half-life at 0.08 µM: pH 7.4, Microsomal stability assays: Half-life
Procedure: as §1, §2

Sequence of hERG channel (Q12809 whole entry): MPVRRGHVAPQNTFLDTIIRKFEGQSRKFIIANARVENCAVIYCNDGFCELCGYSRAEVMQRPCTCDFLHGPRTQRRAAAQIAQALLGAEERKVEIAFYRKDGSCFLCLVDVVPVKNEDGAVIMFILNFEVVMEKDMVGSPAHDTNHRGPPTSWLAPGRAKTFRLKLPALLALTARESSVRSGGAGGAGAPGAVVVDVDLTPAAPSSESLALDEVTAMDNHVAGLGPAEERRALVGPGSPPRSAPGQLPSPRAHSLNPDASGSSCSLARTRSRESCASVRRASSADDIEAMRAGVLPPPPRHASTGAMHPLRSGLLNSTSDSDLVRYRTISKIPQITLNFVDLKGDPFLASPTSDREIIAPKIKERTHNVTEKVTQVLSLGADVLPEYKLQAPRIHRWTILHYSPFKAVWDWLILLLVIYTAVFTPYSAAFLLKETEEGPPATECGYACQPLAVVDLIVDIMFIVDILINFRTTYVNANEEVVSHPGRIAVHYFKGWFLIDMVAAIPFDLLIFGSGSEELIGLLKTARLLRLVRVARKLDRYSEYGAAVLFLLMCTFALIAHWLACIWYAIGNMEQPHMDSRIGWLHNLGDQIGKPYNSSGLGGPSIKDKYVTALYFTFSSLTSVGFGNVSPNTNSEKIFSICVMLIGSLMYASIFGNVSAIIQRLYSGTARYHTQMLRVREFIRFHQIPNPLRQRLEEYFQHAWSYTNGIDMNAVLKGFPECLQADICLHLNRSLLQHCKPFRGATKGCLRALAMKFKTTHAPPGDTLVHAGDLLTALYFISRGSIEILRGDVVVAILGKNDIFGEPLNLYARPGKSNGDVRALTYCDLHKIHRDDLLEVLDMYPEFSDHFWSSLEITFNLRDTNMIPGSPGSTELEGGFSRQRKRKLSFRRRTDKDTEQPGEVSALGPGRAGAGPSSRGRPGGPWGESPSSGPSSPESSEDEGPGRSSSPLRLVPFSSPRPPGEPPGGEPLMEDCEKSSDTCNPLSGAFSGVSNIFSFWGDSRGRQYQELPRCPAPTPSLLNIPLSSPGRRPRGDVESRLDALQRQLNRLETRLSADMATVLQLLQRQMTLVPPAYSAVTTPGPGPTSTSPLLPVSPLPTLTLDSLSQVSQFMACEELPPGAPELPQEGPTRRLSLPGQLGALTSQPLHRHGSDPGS

Row | Structure (SMILES) | Ki (hERG channel) | CLint scaled at 0.08 µM [1] | half-life at 0.08 µM [1] | Ki (VMAT2) | CLint scaled at 0.08 µM [2] | half-life at 0.08 µM [2] | Microsomal stability assays: Half-life [1] | Microsomal stability assays: Clearance [2] | Microsomal stability assays: Half-life [2] | Microsomal stability assays: Clearance [1]
1 | CC(Cc1ccc(F)cc1)NCCCc1ccc2[nH]ccc2c1 (stereo not shown) [Compound 55] | 1550 ± 630 nM | > 400 mL/min/kg | < 6 min | 27.4 ± 8.93 nM |  |  |  |  |  | 
2 | CC(Cc1ccc(F)c(F)c1)NCCCc1ccc(N)cc1 (stereo not shown) [Compound 60] | 3140 ± 1550 nM | 30.7 mL/min/kg | 60 min | 48.3 ± 16.4 nM |  |  |  |  |  | 
3 | CC(Cc1ccc(Cl)cc1)NCCCc1ccc(N)cc1 (stereo not shown) [Compound 62] | 2380 ± 1120 nM | 83 mL/min/kg | 36 min | 31.6 ± 4.66 nM |  |  |  |  |  | 
4 | CC(=O)Nc1ccc(CCCNC(C)Cc2ccc(F)cc2)cc1 (stereo not shown) [Compound 66] | 10100 ± 3350 nM | 30.7 mL/min/kg | 90 min | 32.5 ± 3.52 nM |  |  |  |  |  | 
5 | CC(Cc1ccc(F)cc1)NCCCc1ccc(NC=O)cc1 (stereo not shown) [Compound 70] | 2600 ± 711 nM |  |  | 22.5 ± 4.48 nM | 23 mL/min/kg | 54 min |  |  |  | 
6 | CC(Cc1ccc(NC=O)cc1)NCCCc1ccccc1 (stereo not shown) [Compound 77] | 1760 ± 630 nM |  |  | 21 ± 1.1 nM | 11.2 mL/min/kg | 114 min |  |  |  | 
7 | FCC(Cc1ccc(Br)cc1)NCCCc1ccc(F)cc1 (stereo not shown) [Compound 85] | 1130 ± 711 nM | 335 mL/min/kg |  | 35.7 ± 7.32 nM |  |  | 6 min |  |  | 
8 | CC(Cc1ccc(NC=O)cc1)NCCCc1ccc(F)cc1 (stereo not shown) [Compound 87] | 738 ± 244 nM | 13.3 mL/min/kg | 210 min | 12.7 ± 2.85 nM |  |  |  |  |  | 
9 | CC(Cc1ccc(NC=O)cc1)NCCCc1ccc(F)cc1 (stereo not shown) [Compound 88] | 738 ± 244 nM |  |  | 12.7 ± 2.85 nM | 13.4 mL/min/kg | 96 min |  |  |  | 
10 | CC(Cc1ccc(NC=O)cc1)NCCCc1ccc(F)cc1 (stereo not shown) [Compound 89] | 738 ± 244 nM |  |  | 12.7 ± 2.85 nM |  |  |  | 14 mL/min/kg | 90 min | 
11 | CC(Cc1ccc(NC=O)cc1)NCCCc1ccc(F)cc1 (stereo not shown) [Compound 90] | 738 ± 244 nM |  |  | 12.7 ± 2.85 nM |  |  | 114 min |  |  | 24.9 mL/min/kg
12 | CC(Cc1ccc(F)cc1)NCCCc1c[nH]c2ccccc12 (stereo not shown) [Compound 91] | 2200 ± 124 nM | > 400 mL/min/kg | < 6 min | 36.5 ± 5.56 nM |  |  |  |  |  | 
13 | CC(Cc1ccc(F)cc1)NCCCc1ccc(N)cc1 (stereo not shown) [Compound 94] | 3980 ± 3410 nM | 119 mL/min/kg | 24 min | 84.6 ± 29.1 nM |  |  |  |  |  | 
14 | CC(Cc1ccc(F)c(F)c1)NCCCc1ccncc1 (stereo not shown) [Compound 96] | 4070 ± 734 nM | 96.8 mL/min/kg | 30 min | 78.5 ± 15.8 nM |  |  |  |  |  | 
15 | FCC(Cc1ccccc1)NCCCc1ccccc1 (stereo not shown) [Compound 98] | 17100 ± 12100 nM | > 400 mL/min/kg | < 6 min | 27.8 ± 5.29 nM |  |  |  |  |  | 
16 | FCC(Cc1ccccc1)NCCCc1ccc(F)cc1 (stereo not shown) [Compound 101] | 4800 ± 940 nM | 253 mL/min/kg | 12 min | 14.7 ± 9.28 nM |  |  |  |  |  | 
17 | CC(Cc1ccc(N)cc1)NCCCc1ccccc1 (stereo not shown) [Compound 105] | 4610 ± 1010 nM |  |  | 26.8 ± 6.49 nM | 29.6 mL/min/kg | 42 min |  |  |  | 
18 | CC(Cc1ccc(N)cc1)NCCCc1ccc(F)cc1 (stereo not shown) [Compound 109] | 2590 ± 792 nM |  |  | 19.2 ± 4.43 nM | 25.2 mL/min/kg | 48 min |  |  |  | 
19 | CC(Cc1ccc(N)cc1)NCCCc1ccc(F)cc1 (stereo not shown) [Compound 110] | 2590 ± 792 nM | < 10 mL/min/kg | > 240 min | 19.2 ± 4.43 nM |  |  |  |  |  | 
20 | CC(Cc1ccc(N)cc1)NCCCc1ccc(F)cc1 (stereo not shown) [Compound 111] | 2500 ± 435 nM |  |  | 16.7 ± 3.34 nM |  |  | 144 min |  |  | 19.5 mL/min/kg
21 | CC(Cc1ccc(N)cc1)NCCCc1ccc(F)cc1 (stereo not shown) [Compound 112] | 2500 ± 435 nM |  |  | 16.7 ± 3.34 nM |  |  |  | 23.5 mL/min/kg | 54 min | 
22 | CC(Cc1ccc([N+](=O)[O-])cc1)NCCCc1ccc(F)cc1 (stereo not shown) [Compound 117] | 206 ± 137 nM | 148 mL/min/kg | 18 min | 7.08 ± 1.29 nM |  |  |  |  |  | 
23 | CC(Cc1ccc([N+](=O)[O-])cc1)NCCCc1ccc(F)cc1 (stereo not shown) [Compound 119] | 130 ± 25.6 nM |  |  | 9.85 ± 1.62 nM |  |  | 24 min |  |  | 112 mL/min/kg
24 | CC(Cc1ccc(F)cc1)NCCCc1ccc(Br)cc1 (stereo not shown) [Compound 145] | 506 ± 199 nM | 402 mL/min/kg |  | 22.1 ± 6.5 nM |  |  | 6 min |  |  | 

Row | Structure (SMILES) | Ki (hERG channel) | CLint scaled at 0.08 µM [1] | half-life at 0.08 µM [1] | Ki (VMAT2) | CLint scaled at 0.08 µM [2] | half-life at 0.08 µM [2] | Microsomal stability assays: Half-life [1] | Microsomal stability assays: Clearance [2] | Microsomal stability assays: Half-life [2] | Microsomal stability assays: Clearance [1]
25 | FCC(Cc1ccc(F)cc1)NCCCc1ccc(Cl)cc1 (stereo not shown) [Compound 150] | 2340 ± 1070 nM | 540 mL/min/kg |  | 39.1 ± 7.97 nM |  |  | 6 min |  |  | 
26 | FCC(Cc1ccc(F)cc1)NCCCc1ccc(F)cc1 (stereo not shown) [Compound 152] | 5700 ± 2970 nM | 298 mL/min/kg | 12 min | 27.3 ± 12.8 nM |  |  |  |  |  | 
27 | CCOC(=O)c1ccc(CCCNC(C)Cc2ccc(F)cc2)cc1 (stereo not shown) [Compound 158] | 1410 ± 275 nM | 120 mL/min/kg | 24 min | 42.8 ± 8.89 nM |  |  |  |  |  | 
28 | CC(Cc1ccc(F)cc1)NCCCc1ccc([N+](=O)[O-])cc1 (stereo not shown) [Compound 160] | 67.1 ± 14.7 nM | 119 mL/min/kg | 24 min | 14.3 ± 2.2 nM |  |  |  |  |  | 
29 | CC(Cc1ccc(C(F)(F)F)cc1)NCCCc1ccncc1 (stereo not shown) [Compound 164] | 1890 ± 639 nM | 83.3 mL/min/kg | 36 min | 53.3 ± 6.5 nM |  |  |  |  |  | 
30 | CC(Cc1ccc(-c2cncnc2)cc1)NCCCc1ccc(Cl)cc1 (stereo not shown) [Compound 170] | 199 ± 64.9 nM | 34.2 mL/min/kg | 84 min | 6.74 ± 2.59 nM |  |  |  |  |  | 
31 | CC(Cc1ccc(Br)cc1)NCCCc1ccncc1 (stereo not shown) [Compound 174] | 880 ± 251 nM | 126 mL/min/kg | 24 min | 52.1 ± 35.9 nM |  |  |  |  |  | 
32 | CC(Cc1ccc(F)cc1)NCCCc1ccncc1 (stereo not shown) [Compound 176] | 3770 ± 2.04 nM | 71.8 mL/min/kg | 42 min | 80.7 ± 21 nM |  |  |  |  |  | 
33 | CC(Cc1ccncc1)NCCCc1ccc(O)cc1 (stereo not shown) [Compound 178] | 5070 ± 71.4 nM | 89.3 mL/min/kg | 30 min | 124 ± 29.4 nM |  |  |  |  |  | 
34 | CC(Cc1ccc(Br)cc1)NCCCc1ccc(I)cc1 (stereo not shown) [Compound 180] | 601 ± 195 nM | 290 mL/min/kg | 12 min | 48.4 ± 19.4 nM |  |  |  |  |  | 
35 | CC(Cc1ccc(F)cc1)NCCCc1ccc(I)cc1 (stereo not shown) [Compound 182] | 512 ± 126 nM | 375 mL/min/kg |  | 52.7 ± 6.35 nM |  |  | 6 min |  |  | 
36 | CC(Cc1ccc(Br)cc1)NCCCc1ccc(Cl)cc1 (stereo not shown) [Compound 184] | 196 ± 30.5 nM | 452 mL/min/kg |  | 9.06 ± 1.61 nM |  |  | 6 min |  |  | 
37 | CC(Cc1ccc(-c2cccnc2)cc1)NCCCc1ccc(F)cc1 (stereo not shown) [Compound 192] | 675 ± 127 nM | 77.2 mL/min/kg | 36 min | 11.9 ± 9.94 nM |  |  |  |  |  | 
38 | CC(Cc1ccccc1)NCCCc1ccc(C(F)(F)F)cc1 (stereo not shown) [Compound 194] | 791 ± 270 nM | 138 mL/min/kg | 18 min | 27.7 ± 7.81 nM |  |  |  |  |  | 
39 | CC(Cc1ccc(-c2cncnc2)cc1)NCCCc1ccc(F)cc1 (stereo not shown) [Compound 196] | 402 ± 72.2 nM | 14.7 mL/min/kg | 192 min | 7.12 ± 1.59 nM |  |  |  |  |  | 
40 | CC(Cc1ccc(Br)cc1)NCCCc1ccc(F)cc1 (stereo not shown) [Compound 200] | 242 ± 76 nM | 186 mL/min/kg | 18 min | 15.2 ± 8.86 nM |  |  |  |  |  | 
41 | CCC(Cc1ccccc1)NCCCc1ccc(O)cc1 (stereo not shown) [Compound 207] | 2380 ± 517 nM | > 400 mL/min/kg | < 6 min | 37.8 ± 6.59 nM |  |  |  |  |  | 
42 | CC(Cc1ccccc1)NCCCc1ccc(-c2cccnc2)cc1 (stereo not shown) [Compound 210] | 3120 ± 251 nM | 392 mL/min/kg |  | 55.4 ± 7.94 nM |  |  | 6 min |  |  | 
43 | CC(Cc1ccccc1)NCCCc1ccc(I)cc1 (stereo not shown) [Compound 212] | 642 ± 168 nM |  |  | 22.2 ± 2.21 nM |  |  | 6 min |  |  | 439 mL/min/kg
44 | CC(Cc1ccccc1)NCCCc1ccc(I)cc1 (stereo not shown) [Compound 215] | 3040 ± 1370 nM |  | 18 min | 6.86 ± 1.81 nM |  |  |  |  |  | 148 mL/min/kg
45 | CC(Cc1ccccc1)NCCCc1ccc(S)cc1 (stereo not shown) [Compound 216] | 4190 ± 1080 nM | 170 mL/min/kg | 18 min | 65.4 ± 23.4 nM |  |  |  |  |  | 
46 | CC(Cc1ccccc1)NCCCc1ccc(N)cc1 (stereo not shown) [Compound 220] | 5340 ± 5630 nM | 65.3 mL/min/kg | 42 min | 40.4 ± 4.72 nM |  |  |  |  |  | 
47 | CC(Cc1ccccc1)NCCCc1ccc([N+](=O)[O-])cc1 (stereo not shown) [Compound 222] | 96.1 ± 28.3 nM | > 400 mL/min/kg | < 6 min | 4.97 ± 3.08 nM |  |  |  |  |  | 
48 | CC(Cc1ccccc1)NCCCc1ccc(O)cc1 (stereo not shown) [Compound 223] | 2750 ± 1080 nM |  |  | 5.01 ± 1.72 nM |  |  |  |  |  | 
